Source: the supplement of paper PMC10307832

Assays:
Experiment in all cases: relative viability (nuclei count vs DMSO), 5 days (fraction); higher = more cells survive
Tanzisertib + Alpelisib = compound: O[C@H]1CC[C@H](Nc2ncc3nc(Nc4c(F)cc(F)cc4F)n([C@H]4CCOC4)c3n2)CC1 [Tanzisertib] + Cc1nc(NC(=O)N2CCC[C@H]2C(N)=O)sc1-c1ccnc(C(C)(C)C(F)(F)F)c1 [Alpelisib] (partner 2 µM)
Summary of the method: (§1)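 Cells from lung cancer lines were seeded into 1536-well plates and, one day later, dosed by pin tool. Treatments were either a single drug or a fixed dose of an anchor drug with five library-drug doses (not always all listed) in √10 steps. After 5 days, nuclei were stained in a one-step fixation (final 0.05% Triton X-100, 1% formaldehyde, 1 ug/ml Hoechst) and counted on 4× images, and relative viability is the treated-to-vehicle nuclei ratio, as the median of duplicate plates.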

Tanzisertib + OSI-027 = compound: O[C@H]1CC[C@H](Nc2ncc3nc(Nc4c(F)cc(F)cc4F)n([C@H]4CCOC4)c3n2)CC1 [Tanzisertib] + COc1cccc2cc(-c3nc([C@H]4CC[C@H](C(=O)O)CC4)n4ncnc(N)c34)[nH]c12 [OSI-027] (partner 0.5 µM)
Summary of the method: as §1

Tanzisertib + Crizotinib = compound: O[C@H]1CC[C@H](Nc2ncc3nc(Nc4c(F)cc(F)cc4F)n([C@H]4CCOC4)c3n2)CC1 [Tanzisertib] + C[C@@H](Oc1cc(-c2cnn(C3CCNCC3)c2)cnc1N)c1c(Cl)ccc(F)c1Cl [Crizotinib] (partner 1 µM)
Summary of the method: as §1

Tanzisertib + Foretinib = compound: O[C@H]1CC[C@H](Nc2ncc3nc(Nc4c(F)cc(F)cc4F)n([C@H]4CCOC4)c3n2)CC1 [Tanzisertib] + COc1cc2c(Oc3ccc(NC(=O)C4(C(=O)Nc5ccc(F)cc5)CC4)cc3F)ccnc2cc1OCCCN1CCOCC1 [Foretinib] (partner 0.25 µM)
Summary of the method: as §1

Cell Line	relative viability (Tanzisertib + Alpelisib; first compound 0.08 µM)	relative viability (Tanzisertib + Alpelisib; first compound 0.253 µM)	relative viability (Tanzisertib + Alpelisib; first compound 0.8 µM)	relative viability (Tanzisertib + Alpelisib; first compound 2.53 µM)	relative viability (Tanzisertib + Alpelisib; first compound 8 µM)	relative viability (Tanzisertib + OSI-027; first compound 0.08 µM)	relative viability (Tanzisertib + OSI-027; first compound 0.253 µM)	relative viability (Tanzisertib + OSI-027; first compound 0.8 µM)	relative viability (Tanzisertib + OSI-027; first compound 2.53 µM)	relative viability (Tanzisertib + OSI-027; first compound 8 µM)	relative viability (Tanzisertib + Crizotinib; first compound 0.08 µM)	relative viability (Tanzisertib + Crizotinib; first compound 0.253 µM)	relative viability (Tanzisertib + Crizotinib; first compound 0.8 µM)	relative viability (Tanzisertib + Crizotinib; first compound 2.53 µM)	relative viability (Tanzisertib + Crizotinib; first compound 8 µM)	relative viability (Tanzisertib + Foretinib; first compound 0.08 µM)	relative viability (Tanzisertib + Foretinib; first compound 0.253 µM)	relative viability (Tanzisertib + Foretinib; first compound 0.8 µM)	relative viability (Tanzisertib + Foretinib; first compound 2.53 µM)	relative viability (Tanzisertib + Foretinib; first compound 8 µM)
LXF-289	1.06	1.02	1.05	1.04	1.11	0.801	0.818	0.76	0.856	0.644	0.935	0.734	0.836	0.815	0.854	1.02	1.01	1.06	0.989	1.03
NCI-H23	0.63	0.617	0.705	0.747	0.718	0.587	0.547	0.575	0.747	0.198	0.568	0.553	0.554	0.601	0.598	1.01	1.07	0.996	0.952	1.02
NCI-H322M	0.935	0.648	0.774	0.669	0.776	0.636	0.623	0.539	0.6	0.538	0.779	0.928	0.832	0.882	0.709	1.02	0.962	0.886	0.961	0.97
NCI-H358	0.902	0.762	0.922	0.717	0.635	0.817	0.637	0.661	0.655	0.501	0.748	0.716	0.511	0.506	0.485	0.774	0.589	0.694	0.73	0.442
NCI-H441	0.925	0.69	0.674	0.713	0.635	0.855	0.505	0.467	0.444	0.403	0.94	0.811	0.505	0.647	0.78	0.488	0.797	1.03	0.994	0.752
NCI-H460	0.716	0.441	0.477	0.356	0.286	0.664	0.683	0.549	0.624	0.502	1.06	0.897	0.978	0.923	0.791	1.05	1.03	0.884	1.07	1.01
NCI-H520	0.958	0.886	1.07	0.937	0.927	0.328	0.246	0.238	0.262	0.304	0.862	0.821	0.745	0.68	0.863	0.792	0.734	0.83	0.753	0.757
NCI-H596	0.539	0.448	0.421	0.407	0.471	0.779	0.666	0.766	0.63	0.555	0.979	1.05	0.955	0.988	0.902	0.723	0.82	0.724	0.699	0.76
